Experimental findings from ChEMBL document CHEMBL1133708, “A new class of conformationally rigid analogues of 4-amino-5-halopentanoic acids, potent inactivators of gamma-aminobutyric acid aminotransferase” (J Med Chem, 2000) are described below.

In general, Ki refers to the dissociation constant of the complex between target and ligand, obtained from inhibition or displacement. For orientation: kinact means the rate constant of inactivation at saturating inhibitor.

Experiment [1] concerns the target 4-aminobutyrate aminotransferase, mitochondrial (Sus scrofa) (UniProt P80147). In words: Compound was evaluated for the kinetic constant for the inhibition of Gamma-amino-N-butyrate transaminase; NA means no inactivation.
Experiment [2] deals with T1, 4-aminobutyrate aminotransferase, mitochondrial (Sus scrofa, UniProt P80147). In words: Compound was evaluated for the competitive inhibition of Gamma-amino-N-butyrate transaminase.
T1 sequence (P80147 whole entry): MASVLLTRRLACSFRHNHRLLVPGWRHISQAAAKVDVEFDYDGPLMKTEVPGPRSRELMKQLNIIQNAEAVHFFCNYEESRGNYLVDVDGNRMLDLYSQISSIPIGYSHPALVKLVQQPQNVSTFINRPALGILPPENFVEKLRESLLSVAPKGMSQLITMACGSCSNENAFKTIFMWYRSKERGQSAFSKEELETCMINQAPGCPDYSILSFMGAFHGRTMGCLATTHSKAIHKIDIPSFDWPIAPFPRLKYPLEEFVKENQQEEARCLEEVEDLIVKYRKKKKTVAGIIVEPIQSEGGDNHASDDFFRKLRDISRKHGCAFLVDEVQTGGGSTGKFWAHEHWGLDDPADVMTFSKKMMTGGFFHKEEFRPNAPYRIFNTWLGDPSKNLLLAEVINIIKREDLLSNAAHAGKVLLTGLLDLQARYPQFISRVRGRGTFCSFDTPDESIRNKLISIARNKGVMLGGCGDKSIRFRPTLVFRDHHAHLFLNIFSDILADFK
Experiment [3] has as its target T1, 4-aminobutyrate aminotransferase, mitochondrial. In words: Compound was evaluated for the kinetic constant for the inhibition of Gamma-amino-N-butyrate transaminase.
A short description of experiment [4]: Selectivity ratio of Kinact/KI.
The target in experiment [5] is 4-aminobutyrate aminotransferase, mitochondrial (Sus scrofa) (UniProt P80147). In words: Compound was evaluated for the kinetic constant for the inactivation of Gamma-amino-N-butyrate transaminase.
Sequence of 4-aminobutyrate aminotransferase, mitochondrial (Sus scrofa) (P80147 whole entry): as above

`N[C@H]1[C@H](Br)[C@@H](C(=O)O)C[C@@H]1O`: in experiment [1], the NA result is “No inactivation”. Further, in experiment [2], the Ki was 13 mM.
On to `N[C@H]1C[C@@H](C(=O)O)CC1(F)F`, for which the NA result in experiment [1] is “No inactivation”.
As to `N[C@H]1[C@H](Br)[C@@H](C(=O)O)C[C@@H]1Br`, the Ki is 49 mM in experiment [3] and 4.2 mM in experiment [2]. The K inact/Ki in experiment [4] is 0.0617 M⁻¹ s⁻¹. For the same molecule, the maximal inactivation rate constant (kinact) in experiment [5] amounted to 0.18 min⁻¹.
In experiment [3], `NC(CF)CCC(=O)O` (configuration not stated) showed a Ki of 0.4 mM. Further, the inactivation rate constant (kinact) in experiment [5] came to 0.5 min⁻¹.
Regarding `N[C@H]1C[C@@H](C(=O)O)C[C@@H]1F`, the inhibition constant Ki came out at 0.43 mM in experiment [3] and 0.012 mM in experiment [2]. Also, the K inact/Ki in experiment [4] came out at 1.17 M⁻¹ s⁻¹. Further, the kinact in experiment [5] is 0.03 min⁻¹.
Regarding `N[C@H]1[C@H](O)[C@@H](C(=O)O)C[C@@H]1Br`, the NA entry in experiment [1] was “No inactivation”. The molecule further showed an inhibition constant (Ki) in experiment [2] of 5.9 mM.
Taken in the same sequence, the figures for `N[C@@H]1CC[C@H](C(=O)O)[C@H]1Br` were “No inactivation” and 12 mM.
With `N[C@H]1C[C@@H](C(=O)O)C[C@@H]1Br`, the Ki in experiment [3] turned out to be 16 mM; in experiment [2], 3.6 mM. Besides, the K inact/Ki in experiment [4] was 0.0217 M⁻¹ s⁻¹. In experiment [5], the kinact was determined as 0.02 min⁻¹.
`N[C@H]1[C@@H](F)[C@@H](C(=O)O)C[C@@H]1Br`: the inhibitory constant (Ki) in experiment [3] is 3.14 mM; in experiment [2] it was 1.6 mM. For the same molecule, the K inact/Ki in experiment [4] came out at 0.122 M⁻¹ s⁻¹. Also, the kinact in experiment [5] worked out at 0.023 min⁻¹.
Consider `N[C@H]1[C@H](Br)[C@@H](C(=O)O)C[C@@H]1F`, for which the NA result in experiment [1] is “No inactivation”. For the same molecule, the Ki in experiment [2] is 4.7 mM.
